Source: PMC6244206, “C-Terminal Residue of Ultrashort Peptides Impacts on Molecular Self-Assembly, Hydrogelation, and Interaction with Small-Molecule Drugs” (Scientific Reports, 2018)
Where “and” joins values, the source holds several entries; their conditions need not be identical. Equal values may be shown once.

Columns and labels:
[1] = Small-molecule drug elution studies from peptide hydrogels; type: physicochemical; conditions: for Drug loading capacity in the peptide hydrogels: SMD 2 mM in peptide hydrogels 20 mM (peptides 1A and 1B)
Description: We compared the SMD elution profiles of the peptide hydrogels with the theoretical maximal amount of SMD that would diffuse from the hydrogel into the extra volume of PBS if there were no obstruction to diffusion.
The peptides were weighed out in 4 mL-vials, after which phosphate-buffered saline (PBS) containing the small-molecule drug (SMD final concentration = 2 mM) was added to a final volume of 0.30 mL each. The peptide-SMD-PBS mixtures were then shaken and sonicated for 10 s, after which the mixtures were allowed to anneal for 24 h. After that, 0.75 mL of fresh PBS was slowly added with a pipettor to the surface of the hydrogel so as not to disturb the surface of the gel. After 24 h at 25 °C, the PBS was carefully extracted with a pipettor for UV/vis analysis; a fresh volume (0.75 mL) of PBS was then replaced. This process was repeated as many times as the number of pre-determined elution samples. The extracted PBS was transferred into a cuvette (pathlength = 10 mm) and analysed with an Agilent 8543 UV/visible spectrometer for the presence of the SMD. […] A control experiment was set up for each peptide hydrogel, for which no drug was added. This is to account for absorption at the respective wavelengths due to eluted peptide. The elution profile of each peptide is compared with a theoretical maximal elution profile, viz. the theoretical maximal amount of SMD that would diffuse from the hydrogel into the extra volume of PBS if there were no obstruction to diffusion. The cumulative eluted percentage of SMD at each point is given by: [1 − (1/3.5)^n] 100%, where n is the number of elution.

[2] = cited from earlier work
[3] = Gelation studies of peptides in PBS; type: physicochemical
Description: Although peptide 1C could form a gel at 40 mg/mL (30 mM), the hydrogel formed was opaque and inhomogeneous; this is a big contrast to peptide 1A that forms a clear and transparent hydrogel (Fig. 3a). […] On the other hand, perhaps unsurprisingly, the tripeptides generally require higher concentrations to gel. Peptide 2A was previously reported to require a higher peptide concentration to gel than peptide 1A[50]. This has also been observed for peptide 2B, in which 30 mM is required (c.f. 15 mM for peptide 2A). […] As with peptide 1D, peptide 2D could not gel and only precipitated. […] When the hydrophilic components are dominant, the enhanced solubility reduces the driving forces for self-assembly. Consequently, hydrogelation is observed at markedly higher concentrations. Such a balance of hydrophilicity/hydrophobicity has been exploited (via enzymatic control) for the formulation of hydrogels[52],[53].
All peptides were prepared via fluoren-9-ylmethoxycarbonyl (Fmoc)-based solid phase peptide synthesis and purified via reversed-phase high performance liquid chromatography-mass spectrometry (HPLC-MS) on an Agilent 6130 Quadrupole LC/MS system. Peptide hydrogels were prepared by weighing out the appropriate peptide mass in 2 mL-vials. After the requisite volume of phosphate-buffered saline (PBS) was added, the peptide-water mixture was shaken and sonicated for 10 s. […]

[4] = Solubility of peptides in phosphate-buffered saline to form clear solutions; type: physicochemical; conditions: pH 7.4
Description: The peptides were prepared via standard solid-phase peptide synthesis. The purification of all peptides was straightforward, except for peptide 1D. […] As a result, it frequently precipitated on the reversed-phase column during HPLC (high performance liquid chromatography) purification with a gradient of acetonitrile/water, leading to poor yields (<10%). The solubilities of peptides 1 and 2 in phosphate-buffered saline (PBS; pH 7.4) to form clear solutions were then tested; peptides 1A and 2A were also assessed as references. […] As Table 1 indicates, the hexapeptides dissolve to a lower extent than the tripeptides. This is reflective of the greater propensity of the hexapeptides to self-assemble and aggregate due to their longer hydrophobic backbone. In addition, peptides with lysine and arginine dissolve to a greater extent due to their charged side chains at pH 7.4.

[5] = Zeta potential measurements of peptide fibrils; type: physicochemical; conditions: in water, peptide 10 mM, 25 °C; mean of triplicate measurements
Description: The zeta potential of the peptide fibrils was measured with an Anton Paar Litesizer 500 Particle Sizer. An omega zeta potential cuvette was utilised for the measurements, which was kept at a constant temperature of 25 °C. Triplicate measurements of each peptide sample were made at concentrations of 10 mM in water.

[6] = PBS; previously reported; cited from earlier work
Description: Although peptide 1C could form a gel at 40 mg/mL (30 mM), the hydrogel formed was opaque and inhomogeneous; this is a big contrast to peptide 1A that forms a clear and transparent hydrogel (Fig. 3a). […] This is a big contrast to peptides 1E and 2E, which were previously reported t ...

[7] = Rheological studies of the peptide hydrogels; type: physicochemical; conditions: hydrogels 40 mg/mL in PBS, oscillatory strain sweep, 6.28 rad/s, 25 °C, triplicates
Description: Viscoelastic properties of the hydrogels were assessed at 25 °C with an ARES-G2 rheometer (TA Instruments, Piscataway, NJ) in the 25.0 mm-diameter titanium parallel plate geometry and a gap distance of 0.8 mm. For oscillatory frequency sweep studies, the plate rotation was varied between 0.1–100 rad/s at a constant strain of 0.1%. For oscillatory strain sweep studies, the strain was varied between 0.001–100% at a constant frequency of 6.28 rad/s. Each experiment was carried out in triplicates. This procedure was also previously described by us[88].

| Compound | Drug loading capacity in the peptide hydrogels [1] [mg/g] | pKa [2] | Appearance of hydrogel at 40 mg/mL ([3]; 40 mg/mL in PBS) | Status of gel ([3]; phosphate-buffered saline, pH 7.4, at minimal gelation concentration) | Soluble peptide concentration [4] [mg/mL] | Zeta potential [5] | Gelation concentration [6] | Hydrogel formation with doxorubicin ([1]; doxorubicin 2 mM in PBS) | Encapsulated doxorubicin eluted from peptide hydrogel ([1]; doxorubicin 2 mM in peptide hydrogel 20 mM, PBS pH 7.4, 25 °C, repeated elutions with 0.75 mL PBS, UV/vis 480 nm, n = 3) [%] | Hydrogel formation with methotrexate ([1]; methotrexate 2 mM in PBS) | Hydrogel formation with naltrexone ([1]; naltrexone 2 mM in PBS) | Yield stress / strain at which the hydrogel breaks down [7] [%] |
| --- | --- | --- | --- | --- | --- | --- | --- | --- | --- | --- | --- | --- |
| CN(Cc1cnc2nc(N)nc(N)c2n1)c1ccc(C(=O)N[C@@H](CCC(=O)O)C(=O)O)cc1 [methotrexate, reference compound] | 0.89 | – | – | – | – | – | – | – | – | – | – | – |
| O=C1CC[C@@]2(O)[C@H]3Cc4ccc(O)c5c4[C@@]2(CCN3CC2CC2)[C@H]1O5 [naltrexone, reference compound] | 0.67 | ~ 8.1 | – | – | – | – | – | – | – | – | – | – |
| acetylated Leu-Ile-Val-Ala-Gly-Lys-NH2 [Peptide 1A] | – | – | transparent hydrogels | Clear, transparent | 3 | +33.40 ± 0.17 mV | 10 mg/mL and 6 mM | formed stable hydrogels | 40 | could do so with methotrexate (with some coagulation within the hydrogel) | formed stable hydrogels | 3 |
